Experiments:
Assay in all cases: PHD finger domain microarray
Assay type in all cases: binding, human
TRIM66 (PB) = test system: TRIM66 (PB)
Description: (§1) To define the histone binding preferences of the PHD finger proteome, we expressed and purified 123 annotated human PHD-containing domains as GST-tagged recombinant fusions from E. coli. The recombinant proteins consisted of either PHD fingers in isolation, or as tandem domains if a given PHD finger was located adjacent to another reader domain (e.g., one or more PHD fingers, Tudor, chromo and/or bromodomains) (Additional file 1: Table S1). These GST fusions were printed in duplicate on nitrocellulose-coated microarray slides and probed with biotinylated peptides that represented the N-termini of H3, H4, H2A or H2B (Fig. 1a and Additional file 2: Figure S1). As the majority of PHD readers thus far characterized are H3K4me0/3 readers, we included additional peptides (H3K4 as either mono-, di-, or trimethylated) to further determine any H3K4 methyl preference (Additional file 2: Figure S2 and Fig. 1b). As a control, we also probed these microarrays with an α-Tubulin peptide (a.a. 30–50) that would not be predicted to interact with PHD fingers (Additional file 2: Figure S1). […] We also cannot exclude the possibility that some PHD fingers might not be functionally active on the microarrays (perhaps due to misfolding or the lack of an important adjacent region).
(§2) The protein domain microarray was designed to include 123 GST-tagged PHD-domain containing recombinant proteins. Protein domain microarray development and probing was as previously. Briefly, recombinant proteins were synthesized and cloned into pGEX-4T-1 vector by Biomatik Corporation. These GST-PHD readers were subsequently expressed, purified, and spotted in duplicate onto nitrocellulose-coated glass slides (Oncyte Avid slides, Grace Bio-Labs) using a pin arrayer (Aushon 2470, Aushon). For probing, microarray slides were blocked with 3% milk, 3% bovine serum albumin, 0.1% Tween 20 in PBS. Biotinylated peptides were pre-labeled with streptavidin-Cy3 fluorophore (GE Healthcare) and incubated with the blocked array slides. Slides were then washed with PBST and allowed to air dry. Fluorescent interactions were visualized using a GenePix 4200A Microarray Scanner (Molecular Devices).

PHF21A = test system: PHF21A
Description: as §1, §2

AIRE (PP) = test system: AIRE (PP)
Description: as §1, §2

KDM5B (PHD1) = test system: KDM5B (PHD1)
Description: as §1, §2

KDM5A (PHD1) = test system: KDM5A (PHD1)
Description: as §1, §2

KDM5A (PHD3) = test system: KDM5A (PHD3)
Description: as §1, §2

Row | Substance | binding preference (TRIM66 (PB); listed as unmethylated H3K4) | binding preference (TRIM66 (PB); listed as unmodified H3 tail) | binding preference (PHF21A) | binding preference (AIRE (PP)) | binding preference (KDM5B (PHD1)) | binding preference (KDM5A (PHD1)) | binding preference (KDM5A (PHD3))
1 | H3 (1-20): unmodified H3 N-terminal peptide (1–20) | preference for the unmethylated H3K4 state | readers of the unmodified H3 tail | preference for the unmethylated H3K4 state | preference for the unmethylated H3K4 state | preference for the unmethylated H3K4 state | preference for the unmethylated H3K4 state | –
2 | H3K4me3: H3 1-20 [Peptide H3K4me3] | – | – | – | – | – | – | consistent with their current classification as H3K4me3 binders

— PMC6979384, “Characterization of the plant homeodomain (PHD) reader family for their histone tail interactions” (Epigenetics & Chromatin, 2020)
